Reference: ChEMBL document CHEMBL1143158, “Tritium radiolabelling of PB28, a potent sigma-2 receptor ligand: pharmacokinetic and pharmacodynamic characterization” (Bioorg Med Chem Lett, 2008)

Legend:
[1] = Displacement of [3H]PB28 from sigma 2 receptor in rat liver membrane; assay type: cell membranes
[2] = Displacement of [3H]DTG from sigma 2 receptor in rat liver membrane; assay type: cell membranes
[3] = Binding affinity to sigma 2 receptor in rat liver membrane by saturation analysis; assay type: cell membranes
Rattus norvegicus = species on record: Rattus norvegicus; test: Selectivity for rat sigma 2 receptor over rat sigma1 receptor; conditions: tested as the 3H-labelled form
[4] = molecular target: Sigma non-opioid intracellular receptor 1 (Rattus norvegicus, UniProt Q9R0C9); test: Binding affinity to sigma 1 receptor in rat liver membrane; assay type: cell membranes
Chain of Sigma non-opioid intracellular receptor 1 (Q9R0C9 whole entry): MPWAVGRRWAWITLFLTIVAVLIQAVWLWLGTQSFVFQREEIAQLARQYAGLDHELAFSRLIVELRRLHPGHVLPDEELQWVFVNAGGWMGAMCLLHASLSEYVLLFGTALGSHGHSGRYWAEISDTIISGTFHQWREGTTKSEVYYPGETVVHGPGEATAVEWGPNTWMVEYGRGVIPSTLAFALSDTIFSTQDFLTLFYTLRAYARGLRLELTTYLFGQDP

SMILES | Ki [1] | Ki [2] | Kd [3] | Selectivity ratio (Rattus norvegicus) | Ki [4]
Cc1ccccc1NC(=N)Nc1ccccc1C [DITOLYLGUANIDINE] | 42 nM |  |  |  | 
O=C(CCCN1CCC(O)(c2ccc(Cl)cc2)CC1)c1ccc(F)cc1 [HALOPERIDOL] | 5.85 nM | 7.38 nM |  |  | 
[3H]C([3H])([3H])Oc1ccc(C)cc1C(=O)NCCCCN1CCc2cc(OC)c(OC)cc2C1 |  |  | 0.66 nM |  | 
COc1cccc2c1CCCC2CCCN1CCN(C2CCCCC2)CC1 (centres undefined) | 0.57 nM | 0.34 nM |  | 40 | 
[3H]C1CCCCC1([3H])N1CCN(CCCC2CCCc3c(OC)cccc32)CC1 (centres undefined) |  |  | 0.12 nM |  | 13.6 nM
